Source: patent US20210236476A1, “METHODS OF TREATING CANCER WITH SMALL MOLECULE PD-L1 INHIBITORS” (CHEMOCENTRYX, INC., priority 2018, published 2021)
“Also recorded” adds a separate entry of the source.

Experiments:
[1] = target: T1, human PD-L1 / human PD-1 interaction (Homo sapiens, UniProt Q9NZQ7); assay: ELISA of PD-1/PD-L1 interaction; assay type: binding; details: FIG. 1, stated collectively for the assays
T1 construct: purchased R&D (PD-L1); ACRO Biosystems (PD-1, biotin)
How it was run: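 Plates coated with 1 μg/mL human PD-L1 and blocked with BSA; serially diluted (1:5) compounds plus biotinylated human PD-1 (0.3 μg/mL) incubated 1 h at 37° C. Bound PD-1 detected with streptavidin-HRP/TMB, absorbance at 450 nm.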

[2] = target: recombinant PD-L1 proteins (dimerization) (Homo sapiens, UniProt Q9NZQ7); assay: dimerization ELISA assay; assay type: binding; details: FIG. 1B
Method: The activity of Compound 1.041 was assessed with an ELISA assay assessing the direct binding of recombinant PD-1 and PD-L1 proteins (FIG. 1A), a dimerization ELISA assay assessing the direct binding/dimerization of recombinant PD-L1 proteins (FIG. 1B), a cell based assay measuring the downstream signaling following the interaction of PD-1 and PD-L1 using a Luciferase reporter assay with cell lines overexpressing PD-1 and PD-L1 (FIG. 1C), and a mixed lymphocyte reaction assay measuring the functional outcome of upregulation of IFNg secretion, using allogenic primary human immune cells (FIG. 1D). Briefly, the mixed lymophocyte reaction assay was performed as follows: Dendritic cells and CD4+T Cells from unmatched donors were cultured together for 5 days in 96 well-flat bottom plates. Test compound was added as indicated at starting concentration of 1 μM with 1:4 dilutions with DMSO. Supernatants were harvested after 5 days of incubation and detection of human IFNg was performed by ELISA.

human PBMCs = assay: T-Cell Exhaustion assay (SEB); assay type: cell-based; details: human PBMCs stimulated with 100ng/mL SEB for three days; FIG. 2A
hCD11C+hCD3- cells = assay: PD-L1 Surface Expression Assay (FACS); assay type: cell-based, human; details: 16 hours, FIG. 2C
Method: Briefly, this assay was performed as follows: Cells were seeded in 12 well plates. Test compounds or antibodies were added for 16 hours at different concentrations. Cells were washed and stained with anti-human PD-L1, anti-human CD11C and anti-human CD3 for 20 minutes at RT before performing FACS analysis. Matching isotype was used as a control.

MDA-MB-231 cells = assay: flow cytometry of PD-L1 surface staining with acid wash; assay type: cell-based, human; details: FIG. 3
Method: To further investigate the possibility that Compound 1.041 reduces PD-L1 surface expression, flow cytometry analysis was formed on MDA-MB-231 cells after PD-L1 surface staining. An acid-wash protocol (cells were washed 3 times (5 minutes with shaking) with cold acid wash buffer (DMEM containing 0.2% BSA and adjusted to a 3.5 pH) followed by 3 washes (5 minutes with shaking) with ice cold PBS 1X) was used to confirm that differences in PD-L1 cell surface staining was not due to tested article interfering with detection antibody binding.

[3] = test system: A375 human melanoma cells; assay: prophylactic dosing, A375 melanoma/PBMC co-implantation model; assay type: in vivo, NOD/SCID mice; details: Compound 1.041 30mg/kg bid, anti-hPD-L1 5 mg/kg i.p.
Text: (§1) Co-crystallized human PD-1/PD-L1 provided structural information from which we developed a number of small molecule checkpoint inhibitors. Active compounds were first profiled by an ELISA assay measuring inhibition of the PD-1/PD-L1 interaction, followed by functional cell-based reporter and mixed lymphocyte reaction (MLR) assays. PD-1/PD-L1 inhibitory compounds thus identified were further selected for in vivo model testing.
As briefly described in Example 1, the prophylactic activity of Compound 1.041 was tested using immunodeficientp NOD/SCID mice (NOD.CB17-Prkdc^scid/NCrHsd) where A375 human melanoma cells were co-implanted along with human peripheral blood mononuclear cells (PBMCs). The mice were broken into 8 groups (n =10 each group): +/−PBMCs+Vehicle; +/−PBMCs+Compound 1.041; +/−PBMCs+Isotype antibody; and +/−PBMCs+anti-hPD-L1. Anti-hPD-L1 and isotype matched control antibody were injected i.p. at 5 mg/kg on day 1, 5, 9, 13, and 17. Compound 1.041 (30mg/kg) and vehicle dose (1% HPMC) p.i. twice daily (bid) starting on day 1.

[4] = test system: A375 human melanoma cells; assay: therapeutic dosing, A375 melanoma/PBMC co-implantation model; assay type: in vivo, NOD/SCID mice; details: established A375 tumors co-injected with human PBMCs; Compound 1.041 30mg/kg bid, anti-hPD-L1 5 mg/kg i.p., from day 28
Text: as §1
As briefly described in Example 1 the therapeutic activity of Compound 1.041 was tested using immunodeficient NOD/SCID mice (NOD.CB17-Prkdc^scid/NCrHsd) where A375 human melanoma cells were co-implanted along with human peripheral blood mononuclear cells (PBMCs). The mice were broken into 4 groups (n=7 each group): +PBMCs+Vehicle; +PBMCs+Compound 1.041; +PBMCs +Isotype antibody; and +PBMCs+anti-hPD-L1. Anti-hPD-L1 and isotype matched control antibody were injected i.p. at 5 mg/kg on day 28, 32, 36, 40, and 44. Compound 1.041 (30mg/kg) and vehicle dose (1% HPMC) p.i. twice daily (bid) starting on day 28.

[5] = test system: human T-cells in A375 tumors; assay: tumor microenvironment analysis by flow cytometry (therapeutic dosing study); assay type: in vivo, NOD/SCID mice; details: compared to vehicle
Method: The tumor microenvironement of vehicle and Compound 1.041 treatments from the above experiment were further explored by dissecting, mincing and digested with collagenase D the tumors from relevant mice for analysis by flow cytometry. Briefly, this assay was performed as follows: Excised tumors were finely chopped with a blade and digested for 60 minutes at 37° C. in MSS 1X containing 2mg/ml of collagenase D and 1U/ml of DNAse I. Single cells were washed and resuspended in FACS buffer (PBS 1X with 10% FBS and 0.1% azide) containing the following monoclonal antibodies (hCD4 in FITC, PD-L1 in PE, CD3 in PercP-Cy5.5, CD45 in PE-Cy7, PD-1 in APC, CD8a in APC-Cy7, CD69 in Pacific Blue and LIVE/DEAD fixable Aqua stain). Isotype-matched controls were used as negative controls. Flow cytometry data were acquired with a FACSCanto II (BD Biosciences, San Jose, Calif.) cytometer and analyzed using FlowJO. […] The flow cytometer was gated on live cells singlets, hCD45^+ and hCD3^+ cells.

T1 sequence (Q9NZQ7 19-239 limits assumed): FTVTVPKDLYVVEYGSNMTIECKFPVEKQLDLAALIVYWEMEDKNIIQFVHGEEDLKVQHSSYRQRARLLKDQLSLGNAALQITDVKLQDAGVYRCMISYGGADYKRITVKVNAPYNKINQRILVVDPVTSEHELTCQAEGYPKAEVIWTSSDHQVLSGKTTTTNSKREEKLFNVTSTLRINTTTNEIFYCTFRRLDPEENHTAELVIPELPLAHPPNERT
recombinant PD-L1 proteins (dimerization), sequence (Q9NZQ7 19-239 limits assumed): as above

C[C@@](CO)(NCc1cc(Cl)c(O[C@H]2CCc3c(-c4cccc(OCCCN5CC(O)C5)c4Cl)cccc32)cc1OCc1cncc(C#N)c1)C(=O)O [Compound 1.041, (S)-2-((5-chloro-4-(((S)-4(2-chloro-3-(3-(3-hydroxyazetidin-1-yl)propoxy)phenyl)-2,3-dihydro-1H-inden-1-yl)oxy)-2-((5-cyanopyridin-3-yl)methoxy)benzyl)amino)-3-hydroxy-2-methylpropanoic acid] was tested, and the “blocking of PD-1/PD-L1 interaction” value [1] was “highly potent and blocks PD-1/PD-L1 interaction”, the “induction of hPD-L1 dimerization” value [2] was “induction of hPD-L1 dimerization” and the “reversal of T cell exhaustion phenotype (IFN-g induction by SEB)” value (human PBMCs) was “reversed T cell exhaustion phenotype; also recorded: reverses T-Cell exhaustion phenotype”. The PD-L1 surface expression (hCD11C+hCD3- cells) was “significantly reduced PD-L1 surface expression”, the PD-L1 surface staining (MDA-MB-231 cells) was “reduced PD-L1 surface staining intensive; also recorded: PD-L1 expression decreases” and the tumor growth ([3]; A375 cells + co-injected hPBMCs, from day 1) was “reduced tumor growth in vivo to a similar extent as the positive control anti-human PD-L1 antibody; also recorded: inhibited tumor growth”. For the same compound, the tumor growth ([3]; A375 cells alone (no hPBMCs)) was “no effect on A375 tumor growth”, the relative tumor growth [4] was “reduced tumor growth in vivo to a similar extent as the positive control anti-human PD-L1 antibody; also recorded: significant inhibitory effect” and the “PD-1 expression (mean fluorescence intensity)” value ([5]; human CD8+ T-cells from treated mice, FIG. 10) was “reduction in PD-1 expression”. For the same compound, the “percentage of hCD8+ T-Cells in contrast to hCD4+ T-Cells” value ([5]; tumors, FIG. 9A-B) was “increases the percentage of hCH8^+ T-cells relative to hCH4^+ T-cells” and the “ratio of hCD8+/hCD4+ T-cells” value ([5]; tumors, FIG. 9C) was “significantly higher CD8^+ T-Cell/CD4^+ T-cell ratio”.
